Laboratory results: ChEMBL document CHEMBL1201862, “PubChem BioAssay data set” (2004)
Calls of active or inactive are those of the source.

Key:
[1] = viability of HCT116 lacking mutant beta-catenin – cell-based, human colon tumor, dose response (AID 1045); type: functional;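 note: HCT116 colon tumor cells with beta catenin knocked out; cells exposed to compound for 60 hours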
[2] = test system: Vero; test: cells; type: functional; details: Chlorocebus sabaeus
[3] = viability of PTEN-deleted HCT116 cells – cell-based, HCT116 PTEN knockout, dose response (AID 1047); type: functional;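 note: HCT116 colon tumor cells with PTEN knocked out; cells exposed to compound for 60 hours before readout; potency for loss of cell viability measured by luminescence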
[4] = molecular target: T1, Caspase-3 (Homo sapiens, UniProt P42574); type: functional;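 note: Dose-response selectivity test against caspase-3 for candidate inhibitors of sentrin-specific proteases (SENPs)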
T1 sequence (P42574 whole entry): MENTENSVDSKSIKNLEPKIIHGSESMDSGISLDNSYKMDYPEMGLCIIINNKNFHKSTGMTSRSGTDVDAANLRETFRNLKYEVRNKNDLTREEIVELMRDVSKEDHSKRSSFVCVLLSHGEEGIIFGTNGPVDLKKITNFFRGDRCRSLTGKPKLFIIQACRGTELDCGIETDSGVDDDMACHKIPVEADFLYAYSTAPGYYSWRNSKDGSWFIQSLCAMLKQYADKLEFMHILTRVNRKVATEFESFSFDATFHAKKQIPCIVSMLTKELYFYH

[5] = molecular target: T2, Sentrin-specific protease 7 (Homo sapiens, UniProt Q9BQF6); type: functional;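 note: Luminescence-based dose-response confirmation of ultra-high-throughput screening hits, measuring inhibition of SENP7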
T2 sequence (Q9BQF6 whole entry): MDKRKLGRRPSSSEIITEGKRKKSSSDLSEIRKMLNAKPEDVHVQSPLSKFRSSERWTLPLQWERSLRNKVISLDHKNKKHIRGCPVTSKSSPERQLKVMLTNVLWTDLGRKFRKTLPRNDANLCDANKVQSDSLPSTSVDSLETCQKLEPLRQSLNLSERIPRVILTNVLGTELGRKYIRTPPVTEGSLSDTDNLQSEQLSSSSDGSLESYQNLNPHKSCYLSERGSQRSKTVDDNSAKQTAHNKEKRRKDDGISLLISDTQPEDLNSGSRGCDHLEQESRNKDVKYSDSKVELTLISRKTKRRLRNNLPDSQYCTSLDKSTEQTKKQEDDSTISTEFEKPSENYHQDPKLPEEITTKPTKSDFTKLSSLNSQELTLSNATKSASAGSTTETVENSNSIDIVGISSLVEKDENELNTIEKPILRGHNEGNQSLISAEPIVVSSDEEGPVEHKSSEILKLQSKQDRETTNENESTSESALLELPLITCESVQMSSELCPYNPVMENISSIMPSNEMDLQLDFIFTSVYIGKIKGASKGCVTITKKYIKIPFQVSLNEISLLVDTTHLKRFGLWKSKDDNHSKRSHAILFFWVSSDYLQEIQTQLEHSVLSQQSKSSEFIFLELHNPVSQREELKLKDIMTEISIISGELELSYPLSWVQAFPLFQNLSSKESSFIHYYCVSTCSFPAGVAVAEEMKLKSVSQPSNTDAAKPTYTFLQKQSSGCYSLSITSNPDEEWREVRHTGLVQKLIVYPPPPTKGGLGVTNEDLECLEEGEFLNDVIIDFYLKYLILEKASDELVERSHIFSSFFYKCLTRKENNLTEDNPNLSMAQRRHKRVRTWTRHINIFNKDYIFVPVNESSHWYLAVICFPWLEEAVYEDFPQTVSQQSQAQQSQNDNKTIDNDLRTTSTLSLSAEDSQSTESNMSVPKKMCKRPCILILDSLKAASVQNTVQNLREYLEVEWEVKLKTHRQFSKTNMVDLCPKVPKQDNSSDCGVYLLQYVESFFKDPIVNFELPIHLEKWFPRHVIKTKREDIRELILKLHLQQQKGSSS

[6] = molecular target: T3, Sentrin-specific protease 8 (Homo sapiens, UniProt Q96LD8); type: functional;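 note: luminescence read-out of SENP8 inhibition, dose-response confirmation following an ultra-high-throughput screen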
T3 sequence (Q96LD8 whole entry): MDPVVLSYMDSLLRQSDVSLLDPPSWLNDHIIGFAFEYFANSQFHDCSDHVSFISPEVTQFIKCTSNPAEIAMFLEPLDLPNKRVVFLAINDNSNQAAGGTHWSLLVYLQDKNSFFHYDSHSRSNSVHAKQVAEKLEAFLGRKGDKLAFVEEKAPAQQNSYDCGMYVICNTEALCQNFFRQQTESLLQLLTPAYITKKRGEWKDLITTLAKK

[7] = molecular target: Dual specificity tyrosine-phosphorylation-regulated kinase 1A (Rattus norvegicus, UniProt Q63470); type: biochemical, Homo sapiens
[8] = molecular target: T4, Sentrin-specific protease 6 (Homo sapiens, UniProt Q9GZR1); type: functional;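 note: Luminescence-based dose-response confirmatory assay of SENP6 inhibition, following up an ultra-high-throughput screen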
T4 sequence (Q9GZR1 whole entry): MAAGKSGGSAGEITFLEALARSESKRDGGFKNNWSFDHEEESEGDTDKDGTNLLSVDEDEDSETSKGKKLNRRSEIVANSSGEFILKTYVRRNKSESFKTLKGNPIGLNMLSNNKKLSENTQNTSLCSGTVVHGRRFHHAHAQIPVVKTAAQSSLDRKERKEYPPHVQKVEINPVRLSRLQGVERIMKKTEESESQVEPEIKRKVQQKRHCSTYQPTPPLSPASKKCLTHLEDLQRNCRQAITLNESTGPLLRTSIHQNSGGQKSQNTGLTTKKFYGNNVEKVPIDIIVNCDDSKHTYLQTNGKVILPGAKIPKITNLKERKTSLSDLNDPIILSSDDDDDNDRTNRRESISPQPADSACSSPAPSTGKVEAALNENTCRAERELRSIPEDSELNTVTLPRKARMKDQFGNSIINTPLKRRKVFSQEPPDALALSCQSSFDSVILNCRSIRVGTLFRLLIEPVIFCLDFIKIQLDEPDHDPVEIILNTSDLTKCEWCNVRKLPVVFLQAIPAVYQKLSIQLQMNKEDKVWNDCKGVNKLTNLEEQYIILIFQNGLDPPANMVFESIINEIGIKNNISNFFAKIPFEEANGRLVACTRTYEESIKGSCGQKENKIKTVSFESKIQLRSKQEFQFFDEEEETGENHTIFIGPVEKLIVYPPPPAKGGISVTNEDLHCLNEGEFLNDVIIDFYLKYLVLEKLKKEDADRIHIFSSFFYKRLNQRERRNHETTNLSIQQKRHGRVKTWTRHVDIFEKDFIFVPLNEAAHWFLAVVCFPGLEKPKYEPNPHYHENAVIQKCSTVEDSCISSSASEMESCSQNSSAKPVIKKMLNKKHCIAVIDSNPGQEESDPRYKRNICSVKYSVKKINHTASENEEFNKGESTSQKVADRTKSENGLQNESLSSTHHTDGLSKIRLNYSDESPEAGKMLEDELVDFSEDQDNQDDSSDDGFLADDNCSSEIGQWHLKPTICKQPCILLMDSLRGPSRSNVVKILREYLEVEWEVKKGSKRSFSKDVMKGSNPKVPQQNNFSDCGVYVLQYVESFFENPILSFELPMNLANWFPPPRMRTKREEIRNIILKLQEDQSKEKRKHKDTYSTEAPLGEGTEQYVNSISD

[9] = Trypanosoma cruzi growth suppression in host cells – NIH3T3 host cells, beta-gal luminescence, confirmation (AID 2044); type: functional, cell-based;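 note: intracellular parasites grown in NIH/3T3 mouse fibroblasts as host cells; luminescent beta-galactosidase reporter signal from transgenic T. cruzi replicating inside host cells; inhibitors lower the luminescence signal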
[10] = NIH3T3 cell viability loss – ATP luminescence, mouse fibroblasts, counter-screen, dose response (AID 2010); type: functional, cell-based;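 note: cells exposed to compound for about 90 hours before reading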
[11] = test system: HeLa; test: ATP-based viability loss in HeLa cells – cell-based, CellTiter-Glo luminescence, cherry-pick samples, cytotoxicity control for MITF activator project, dose response (AID 540259); type: functional; details: Homo sapiens
[12] = molecular target: Hexokinase-1 (Homo sapiens, UniProt P19367); test: hexokinase 1 activity inhibitors, potency – biochemical, set 2, resazurin fluorescence coupled readout, selectivity assay for HKDC1 inhibitor project, SAR follow-up (AID 588356); type: functional
[13] = molecular target: T5, Hexokinase HKDC1 (Homo sapiens, UniProt Q2TB90); test: analog inhibition of human HKDC1 activity – biochemical, set 2, SAR follow-up (AID 588355); type: functional
T5 sequence (Q2TB90 whole entry): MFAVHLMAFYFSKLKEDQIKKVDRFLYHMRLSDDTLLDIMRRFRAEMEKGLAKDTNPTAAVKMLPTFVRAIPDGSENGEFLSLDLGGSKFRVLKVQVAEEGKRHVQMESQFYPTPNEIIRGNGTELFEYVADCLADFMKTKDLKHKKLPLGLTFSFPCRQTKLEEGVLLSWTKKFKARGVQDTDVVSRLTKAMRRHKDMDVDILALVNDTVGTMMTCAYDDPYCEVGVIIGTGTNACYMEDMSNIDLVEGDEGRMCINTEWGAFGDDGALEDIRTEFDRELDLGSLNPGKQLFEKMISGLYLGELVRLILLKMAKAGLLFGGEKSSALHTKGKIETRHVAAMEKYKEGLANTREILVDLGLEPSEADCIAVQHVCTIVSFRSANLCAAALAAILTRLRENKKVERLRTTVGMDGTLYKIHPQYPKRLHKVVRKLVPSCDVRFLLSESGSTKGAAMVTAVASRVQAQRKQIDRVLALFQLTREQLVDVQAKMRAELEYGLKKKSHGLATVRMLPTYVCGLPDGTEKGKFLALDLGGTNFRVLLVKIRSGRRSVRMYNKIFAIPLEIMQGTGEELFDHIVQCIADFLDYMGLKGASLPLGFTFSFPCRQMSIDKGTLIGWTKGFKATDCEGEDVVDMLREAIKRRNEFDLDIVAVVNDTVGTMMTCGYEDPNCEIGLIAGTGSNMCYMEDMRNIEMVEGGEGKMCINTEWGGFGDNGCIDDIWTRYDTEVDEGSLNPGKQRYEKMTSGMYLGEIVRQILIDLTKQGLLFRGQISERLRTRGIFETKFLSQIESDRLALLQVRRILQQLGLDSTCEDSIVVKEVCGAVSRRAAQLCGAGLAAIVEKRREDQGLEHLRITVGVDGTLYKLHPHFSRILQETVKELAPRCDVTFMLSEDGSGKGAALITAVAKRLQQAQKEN

[14] = NIH-3T3 fibroblast cytotoxicity, dose response, cytotoxicity control, cell-based, fluorescence, Alamar Blue, secondary assay (AID 2327); type: functional;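 note: NIH-3T3 mouse fibroblasts cultured with fluconazole at 8 µg/mL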
[15] = molecular target: T6, Streptokinase A (Streptococcus pyogenes serotype M1, UniProt P10520); test: viability-normalized secreted streptokinase activity reduction – plasminogen activation absorbance, OD405, dose response (AID 1914); type: functional, Streptococcus pyogenes M1 GAS;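 note: secreted streptokinase activity via plasminogen activation per viability signal from cell pellet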
T6 sequence (P10520 whole entry): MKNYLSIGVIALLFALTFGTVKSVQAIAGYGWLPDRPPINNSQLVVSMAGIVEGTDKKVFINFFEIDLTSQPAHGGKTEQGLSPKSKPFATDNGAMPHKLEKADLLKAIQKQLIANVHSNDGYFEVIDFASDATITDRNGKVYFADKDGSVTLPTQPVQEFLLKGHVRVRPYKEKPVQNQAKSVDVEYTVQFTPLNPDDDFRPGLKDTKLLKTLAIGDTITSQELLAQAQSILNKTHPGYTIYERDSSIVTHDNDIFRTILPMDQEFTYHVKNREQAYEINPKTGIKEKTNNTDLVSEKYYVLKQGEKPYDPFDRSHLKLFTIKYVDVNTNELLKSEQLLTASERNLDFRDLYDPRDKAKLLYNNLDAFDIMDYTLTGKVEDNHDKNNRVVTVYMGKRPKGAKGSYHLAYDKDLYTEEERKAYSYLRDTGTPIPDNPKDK

[16] = fluconazole-exposed Candida albicans growth modulators – fluorescence, retest, confirmation (AID 2467); type: functional, cell-based
[17] = test system: Streptococcus; test: GAS UMAA2166 growth inhibition – luminescence, BacTiterGlo, counter-screen for streptokinase expression inhibitor project, dose response (AID 1915); type: functional, organism-based;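 note: potency for reduction of bacterial viability or growth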
[18] = test system: Streptococcus sp. 'group A'; test: Streptococcus pyogenes SK(-)GAS viability under kanamycin – luminescence, BacTiterGlo, confirmation, counter-screen for streptokinase expression inhibitor project, dose response (AID 1900); type: functional, organism-based
[19] = test system: Escherichia coli; test: microbe, parasite or virus in culture
[20] = molecular target: Prothrombin (Bos taurus, UniProt P00735); test: thrombin protease inhibitors – biochemical, fluorescence polarization, uHTS hits, dose response (AID 602369); type: functional
[21] = molecular target: 26S proteasome non-ATPase regulatory subunit 14 (Homo sapiens, UniProt O00487); test: inhibition of proteasome subunit RPN11 – biochemical, fluorescence polarization, uHTS hits, confirmation (AID 602368); type: functional
[22] = molecular target: 72 kDa type IV collagenase (Homo sapiens, UniProt P08253); test: Dose Response validation of uHTS RPN11 inhibitor hits using a MMP-2 Fluorescence assay.; type: functional
[23] = molecular target: SUMO E1/E2 (Homo sapiens, UniProt P63279+Q9UBE0+Q9UBT2); test: SAR analysis of SUMOylation using HTRF in an in-Vitro dose response assay. [Related pubchem assays (depositor defined):AID2006, AID2011, AID2018, AID2069, AID2658]; type: functional
Sequence of SUMO E1/E2 (Q9UBE0 whole entry): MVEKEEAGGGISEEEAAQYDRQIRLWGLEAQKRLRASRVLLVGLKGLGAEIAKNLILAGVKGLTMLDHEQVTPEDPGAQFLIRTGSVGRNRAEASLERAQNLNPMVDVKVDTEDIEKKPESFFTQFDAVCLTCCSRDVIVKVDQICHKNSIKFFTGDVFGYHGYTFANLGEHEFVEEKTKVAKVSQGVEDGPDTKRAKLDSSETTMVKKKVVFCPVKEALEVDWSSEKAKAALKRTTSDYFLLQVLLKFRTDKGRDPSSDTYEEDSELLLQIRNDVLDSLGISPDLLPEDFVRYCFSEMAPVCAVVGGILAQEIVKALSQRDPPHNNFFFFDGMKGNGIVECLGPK
Sequence of SUMO E1/E2 (Q9UBT2 whole entry): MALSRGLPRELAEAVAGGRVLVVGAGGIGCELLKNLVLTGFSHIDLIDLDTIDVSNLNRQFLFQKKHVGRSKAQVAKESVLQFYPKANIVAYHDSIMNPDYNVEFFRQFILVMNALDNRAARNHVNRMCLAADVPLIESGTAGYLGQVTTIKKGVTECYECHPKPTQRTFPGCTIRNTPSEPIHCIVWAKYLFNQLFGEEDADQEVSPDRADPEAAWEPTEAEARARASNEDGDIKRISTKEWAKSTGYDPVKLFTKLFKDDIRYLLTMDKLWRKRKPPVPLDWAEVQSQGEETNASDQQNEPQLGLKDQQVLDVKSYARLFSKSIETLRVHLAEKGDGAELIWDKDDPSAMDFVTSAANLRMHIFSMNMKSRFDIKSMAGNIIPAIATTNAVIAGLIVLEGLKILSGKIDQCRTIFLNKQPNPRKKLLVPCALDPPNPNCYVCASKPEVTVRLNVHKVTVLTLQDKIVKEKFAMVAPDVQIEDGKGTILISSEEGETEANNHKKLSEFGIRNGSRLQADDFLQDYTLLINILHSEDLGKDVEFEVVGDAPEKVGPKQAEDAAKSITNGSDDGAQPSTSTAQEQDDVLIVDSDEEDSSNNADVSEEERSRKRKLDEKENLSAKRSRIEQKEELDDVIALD
Sequence of SUMO E1/E2 (P63279 whole entry): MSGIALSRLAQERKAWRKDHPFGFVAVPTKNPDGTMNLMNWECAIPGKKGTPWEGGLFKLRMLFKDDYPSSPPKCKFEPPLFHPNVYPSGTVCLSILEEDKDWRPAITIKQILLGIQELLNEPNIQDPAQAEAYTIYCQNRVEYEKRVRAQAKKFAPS

Sequence of Hexokinase-1 (P19367 whole entry): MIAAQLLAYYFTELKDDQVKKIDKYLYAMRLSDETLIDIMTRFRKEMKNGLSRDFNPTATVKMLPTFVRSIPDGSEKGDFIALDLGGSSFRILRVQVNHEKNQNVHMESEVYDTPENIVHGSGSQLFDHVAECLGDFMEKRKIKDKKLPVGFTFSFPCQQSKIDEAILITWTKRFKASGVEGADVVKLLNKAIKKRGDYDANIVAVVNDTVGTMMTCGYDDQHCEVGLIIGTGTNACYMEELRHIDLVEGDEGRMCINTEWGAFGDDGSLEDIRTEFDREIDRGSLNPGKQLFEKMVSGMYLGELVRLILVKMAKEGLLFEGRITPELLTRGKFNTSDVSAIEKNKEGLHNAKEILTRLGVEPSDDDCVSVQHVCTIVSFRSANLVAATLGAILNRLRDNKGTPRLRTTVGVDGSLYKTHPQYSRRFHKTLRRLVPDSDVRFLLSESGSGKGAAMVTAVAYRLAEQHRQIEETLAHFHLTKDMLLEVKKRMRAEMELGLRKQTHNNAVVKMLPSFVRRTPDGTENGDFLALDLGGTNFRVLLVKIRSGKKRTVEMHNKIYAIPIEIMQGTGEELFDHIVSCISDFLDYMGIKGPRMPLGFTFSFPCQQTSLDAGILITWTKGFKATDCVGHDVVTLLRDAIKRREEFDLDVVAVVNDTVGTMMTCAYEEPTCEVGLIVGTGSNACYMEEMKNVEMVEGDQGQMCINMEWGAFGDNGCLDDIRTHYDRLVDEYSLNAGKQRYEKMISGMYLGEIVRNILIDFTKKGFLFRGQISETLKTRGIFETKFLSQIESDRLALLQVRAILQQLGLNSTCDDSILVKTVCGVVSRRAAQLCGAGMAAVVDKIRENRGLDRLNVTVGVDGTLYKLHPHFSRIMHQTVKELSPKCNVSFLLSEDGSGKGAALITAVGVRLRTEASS
Sequence of 26S proteasome non-ATPase regulatory subunit 14 (O00487 whole entry): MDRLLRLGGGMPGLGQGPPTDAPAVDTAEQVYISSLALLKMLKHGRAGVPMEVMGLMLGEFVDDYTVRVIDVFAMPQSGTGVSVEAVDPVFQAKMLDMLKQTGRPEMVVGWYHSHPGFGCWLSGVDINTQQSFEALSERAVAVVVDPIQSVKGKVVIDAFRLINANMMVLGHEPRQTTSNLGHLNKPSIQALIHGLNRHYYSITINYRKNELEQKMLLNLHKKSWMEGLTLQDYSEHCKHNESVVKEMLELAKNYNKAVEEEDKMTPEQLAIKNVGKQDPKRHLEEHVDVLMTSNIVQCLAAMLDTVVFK
Sequence of 72 kDa type IV collagenase (P08253 whole entry): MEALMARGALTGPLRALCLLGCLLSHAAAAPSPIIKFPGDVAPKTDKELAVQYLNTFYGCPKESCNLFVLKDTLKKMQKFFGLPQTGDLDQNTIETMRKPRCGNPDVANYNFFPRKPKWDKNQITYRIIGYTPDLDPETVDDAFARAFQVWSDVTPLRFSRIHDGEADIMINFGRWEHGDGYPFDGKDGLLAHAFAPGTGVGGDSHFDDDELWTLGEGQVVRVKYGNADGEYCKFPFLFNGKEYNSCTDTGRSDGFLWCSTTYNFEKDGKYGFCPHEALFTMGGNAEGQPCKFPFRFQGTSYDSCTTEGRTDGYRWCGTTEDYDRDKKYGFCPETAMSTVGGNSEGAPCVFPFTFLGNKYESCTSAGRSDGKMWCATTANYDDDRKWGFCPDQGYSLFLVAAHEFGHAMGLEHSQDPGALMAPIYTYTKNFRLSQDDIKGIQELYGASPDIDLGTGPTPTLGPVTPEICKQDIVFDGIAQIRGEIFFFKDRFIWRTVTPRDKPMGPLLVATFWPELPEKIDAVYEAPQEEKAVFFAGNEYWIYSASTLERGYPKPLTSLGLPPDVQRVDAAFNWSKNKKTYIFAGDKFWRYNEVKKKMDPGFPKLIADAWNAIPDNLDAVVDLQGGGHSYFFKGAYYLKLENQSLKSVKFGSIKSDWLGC

CCN1CCc2c(C#N)c(N3CCCCC3)nc(NCc3ccccc3)c2C1
EC50 [1]: 17.9 µM (active) | CC50 [2]: > 25 µM (active) | EC50 [3]: 20.1 µM (active)

COc1c(O)ccc(/C=C(\C#N)c2nc3ccccc3[nH]2)c1[N+](=O)[O-]
IC50 [4]: 31.1 µM (active) | IC50 [5]: 15.1 µM (active) | IC50 [6]: 35.9 µM (active) | AC50 [7]: 2.77 µM (active) | IC50 [8]: 25.9 µM (active)

Cc1ccc(Sc2nnc(Cc3ccccc3)c3ccccc23)cc1
EC50 [9]: 1.95 µM (active) | CC50 [2]: > 25 µM (active) | EC50 [10]: > 60 µM (not active)

CC1(C)CC(/C=C/c2ccccc2)=Nc2ccccc2N1
AC50 [11]: 37.3 µM (active)

Cc1cc(C)c2nc(NCc3ccccc3O)sc2c1
AC50 [11]: 42.4 µM (active)

COc1cc2c(cc1OC)-c1cc(Nc3ncn[nH]3)nc(=O)n1CC2
IC50 [12]: > 80 µM (inactive) | IC50 [13]: > 80 µM (inactive)

C/C(=C\C(=O)OCCCCCCCCC(=O)O)C[C@@H]1OC[C@H](C[C@@H]2O[C@H]2[C@@H](C)[C@H](C)O)[C@@H](O)[C@H]1O [MUPIROCIN]
EC50 [14]: > 150 µM (inactive) | EC50 [15]: 0.423 µM (active) | EC50 [16]: > 38 µM (not active) | EC50 [17]: < 0.06 µM (active) | EC50 [18]: < 0.06 µM (active) | AC50 [19]: 4.99 µM (active)

Cc1occc1C(=O)/C(C#N)=C/c1ccc(O)c(Br)c1
AC50 [7]: 7.25 µM (active) | IC50 [20]: 12.1 µM (active) | IC50 [21]: 9.83 µM (active) | IC50 [22]: > 100 µM (inactive)

COc1ccc2c(c1)C(NC(C)=O)C(=O)N2CCN1CCOCC1 (stereo not drawn)
IC50 [12]: > 80 µM (inactive) | IC50 [13]: 8.31 µM (active) | IC50 [23]: 9.45 µM (active)
